According to PubChem BioAssay AID1918931 (Molecular Pharmacology Branch, DTP, NCI, 2023):
Where “and” joins values, the source holds several entries; their conditions need not be identical. Equal entries are not always repeated.

Tested on: 138582-337-R-J1-PDC complex spheroid viability
Test: Anticancer human tumor 138582-337-R-J1-PDC patient-derived Merkel cell tumor cell line growth inhibition
Conditions: for viability, T/C: stronger effect = lower value
Procedure, shortened: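 Multicellular complex spheroids of tumor cells with human endothelial cells (HUVEC) and mesenchymal stem cells; the LSD1 inhibitor iadademstat was combined with standard-of-care or investigational agents. Top concentration at or near clinical Cmax, half-log dilutions; final DMSO ≤0.25%.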
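Also: spheroids exposed to agents for 7 days.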
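For viability, T/C in this document: 100% = DMSO vehicle control viability.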

`COc1cc(Nc2ncc3c(n2)-c2ccc(Cl)cc2C(c2c(F)cccc2OC)=NC3)ccc1C(=O)O` + NC1CC1c1ccc(-c2cccc(O)c2)cc1 showed an IC50 (curve of first compound, second compound 0.1 µM) of 355 nM, an IC50 (curve of first compound, second compound 0.316 µM) of 210 nM and an IC50 (curve of first compound, second compound 1 µM) of 222 nM. The IC50 (curve of first compound, second compound 3.16 µM) was 183 nM, the IC50 (curve of first compound, second compound 10 µM) was 463 nM and the viability, T/C (second compound 0.1 µM, first compound 0.00316 µM) was 66.5%. It also gave a viability, T/C (second compound 0.1 µM, first compound 0.01 µM) of 76.5%, a viability, T/C (second compound 0.1 µM, first compound 0.0316 µM) of 61.4% and a viability, T/C (second compound 0.1 µM, first compound 0.1 µM) of 66.4%. The viability, T/C (second compound 0.1 µM, first compound 0.316 µM) was 51.9%, the viability, T/C (second compound 0.1 µM, first compound 1 µM) was 28.4% and the viability, T/C (second compound 0.316 µM, first compound 0.00316 µM) was 64.7%. It also gave a viability, T/C (second compound 0.316 µM, first compound 0.01 µM) of 69.4%, a viability, T/C (second compound 0.316 µM, first compound 0.0316 µM) of 60.1% and a viability, T/C (second compound 0.316 µM, first compound 0.1 µM) of 64.3%. For the same compound, the viability, T/C (second compound 0.316 µM, first compound 0.316 µM) was 42.1%, the viability, T/C (second compound 0.316 µM, first compound 1 µM) was 30.6% and the viability, T/C (second compound 1 µM, first compound 0.00316 µM) was 70.8%. The viability, T/C (second compound 1 µM, first compound 0.01 µM) was 79.4%, the viability, T/C (second compound 1 µM, first compound 0.0316 µM) was 64.9% and the viability, T/C (second compound 1 µM, first compound 0.1 µM) was 59%. For the same compound, the viability, T/C (second compound 1 µM, first compound 0.316 µM) was 46.7%, the viability, T/C (second compound 1 µM, first compound 1 µM) was 33.2% and the viability, T/C (second compound 3.16 µM, first compound 0.00316 µM) was 70.4%. It also gave a viability, T/C (second compound 3.16 µM, first compound 0.01 µM) of 89.8%, a viability, T/C (second compound 3.16 µM, first compound 0.0316 µM) of 82.5% and a viability, T/C (second compound 3.16 µM, first compound 0.1 µM) of 60.7%. It also gave a viability, T/C (second compound 3.16 µM, first compound 0.316 µM) of 41.9%, a viability, T/C (second compound 3.16 µM, first compound 1 µM) of 38.8% and a viability, T/C (second compound 10 µM, first compound 0.00316 µM) of 82.6%. The viability, T/C (second compound 10 µM, first compound 0.01 µM) was 97%, the viability, T/C (second compound 10 µM, first compound 0.0316 µM) was 80.2% and the viability, T/C (second compound 10 µM, first compound 0.1 µM) was 80.9%. The viability, T/C (second compound 10 µM, first compound 0.316 µM) was 57.2% and the viability, T/C (second compound 10 µM, first compound 1 µM) was 34.8%.
`NS(=O)(=O)OCC1CC(n2ccc3c(NC4CCc5ccccc54)ncnc32)CC1O` (configuration not stated) was tested, and the viability, T/C (compound 0.00949 µM) was 96% and 74.9%, the viability, T/C (compound 0.03 µM) was 104% and 63.2% and the viability, T/C (compound 0.0949 µM) was 93.9% and 50.6%. The viability, T/C (compound 0.3 µM) was 67.3% and 30.4%, the viability, T/C (compound 0.949 µM) was 28% and 26.4% and the viability, T/C (compound 3 µM) was 27.5% and 32.5%. For the same compound, the IC50 (curve of compound) was 504 nM and 82 nM.
